Laboratory results: patent US12691182B2, “Maytansinoid derivatives, conjugates thereof, and methods of use” (priority 2016, dated 2026)

Assays:
Type in all cases: cell-based
C4-2 (STEAP2+) cells = assay: In vitro cytotoxicity assay, C4-2 cells (CellTiter-Glo viability); conditions: naked payload, 5 days; for IC50: CellTiter-Glo
Protocol: (§1) In this Example, the ability of various antibody-drug conjugates and naked payloads to kill antigen-expressing tumor cells in vitro was assessed.
C4-2 (STEAP2+) cells were seeded in 96 well plates at 4000 cells per well in complete growth media and grown overnight. For cell viability curves, serially diluted conjugates or naked payloads were added to the cells at final concentrations ranging from 100 nM to 5 pM and incubated for 5 days. To measure viability, cells were incubated with CellTiter-Glo reagents for 5 minutes and luminescence was determined on a Victor plate reader (PerkinElmer). IC50 values were determined from a four-parameter logistic equation over a 10-point response curve (GraphPad Prism).
(§2) All IC50s are expressed in nM concentration and % kill is reported for the highest dose. All curves and IC50 values are corrected for payload equivalents. The plot of % Cell Viability vs. Log 10 [M]

Ovcar3 (Muc16+) cells = assay: In vitro cytotoxicity assay, Ovcar3 cells (CCK8 viability); conditions: naked payload, 3 days; for Ovcar3 % kill: % kill reported for the highest dose; for IC50: CCK8
Protocol: as §1
(§3) Ovcar3 (Muc16+) cells were seeded in 96 well plates at 3000 cells per well in complete growth media and grown overnight. For cell viability curves, serially diluted conjugates or naked payloads were added to the cells at final concentrations ranging from 100 nM to 5 pM and incubated for 3 days. To measure viability, cells were incubated with CCK8 (Dojindo) for the final 2 hours and the absorbance at 450 nm (OD450) was determined on a Victor (Perkin Elmer). Background OD450 levels determined from digitonin (40 nM) treated cells were subtracted from all wells and viability is expressed as a percentage of the untreated controls. IC50 values were determined from a four-parameter logistic equation over a 10-point response curve (GraphPad Prism). […] All curves and IC50 values are corrected for payload equivalents. The plot of % Cell Viability vs. Log 10 [M]
as §2

SKBR3 (Her2+) cells = assay: In vitro cytotoxicity assay, SKBR3 cells (CCK8 viability); conditions: naked payload, SKBr-3 cells, 3 days; for SKBr-3 % kill: % kill reported for the highest dose; for IC50: CCK8
Protocol: as §1
as §3, with “SKBR3 (Her2+)” for “Ovcar3 (Muc16+)”, “8000” for “3000”
as §2

## Maytan-3-O-carbamoyl-N-(2-methoxy-4-amino)benzene [Compound 30k]
C4-2 (STEAP2+) cells
  IC50: ≥ 10 nM
Ovcar3 (Muc16+) cells
  Ovcar3 % kill: *** (*** indicates % kill greater than, or equal to, 90 and less than 95)
  IC50: 0.1 to 1 nM
SKBR3 (Her2+) cells
  SKBr-3 % kill: ***** (***** indicates % kill greater than, or equal to, 99)
  IC50: 1 to 10 nM

## COc1cc(NC(=O)OC2CC(=O)N(C)c3cc(cc(OC)c3Cl)CC(C)=CC=CC(OC)C3(O)CC(OC(=O)N3)C(C)C3OC23C)ccc1N (centres unmarked) [Compound 30j, Maytan-3-O-carbamoyl-N-(3-methoxy-4-amino)benzene]
C4-2 (STEAP2+) cells; % kill reported for the highest dose
  C4-2 % kill: *** (*** indicates % kill greater than, or equal to, 90 and less than 95)
C4-2 (STEAP2+) cells
  IC50: ≥ 10 nM
Ovcar3 (Muc16+) cells
  Ovcar3 % kill: ** (** indicates % kill greater than, or equal to, 85 and less than 90)
  IC50: 1 to 10 nM
SKBR3 (Her2+) cells
  SKBr-3 % kill: **** (**** indicates % kill greater than, or equal to, 95 and less than 99)
  IC50: 0.1 to 1 nM
